# Test results as given in patent US8691183B2, “Means for the detection and treatment of prostate cells” (Eberhard-Karls-Universitaet Tuebingen Universitaetsklinikum, priority 2008, dated 2014).
# Entries after “also recorded” stand apart in the source; their conditions may differ.
# Assays:
# [1] = tested on: PC-3 prostate carcinoma cells; experiment: Confocal laser scanning microscopy (CLSM) of cellular uptake; assay type: cell-based, human; conditions: 20 minutes incubation, 260 μM
# Procedure: (§1) The cells were grown to 80% confluency at 37° C., 5% CO2 (vol/vol) in 4-well plates (NUNC, Wiesbaden, Germany) with about 300,000 cells per well.
# (§2) U373 human glioma cells, human prostate carcinoma cells PC3 and LNCaP, human Jurkat lymphoma cells, and human colon carcinoma cells Colo205 were grown in RPMI1640 ready mix medium containing L-glutamine and 10% fetal bovine serum (FBS)-gold (PAA Laboratories, Pasching, Austria). U2OS human osteosarcoma cells and HeLa human cervix carcinoma cells were grown in high glucose Dulbeccos modified Eagle's medium containing GlutaMax™ and pyrovate and 10% FBS-gold. Healthy human prostate cells (CC2555, Lonza, Verviers, Belgium) were cultivated in prostate endothelial cell growth medium (PrEGM, Lonza, Verviers, Belgium).
# (§3) The compounds 1, 2 and 4 were dissolved at 1 mg/ml in pure ethanol (Riedel de Haen, Sigma-Aldrich, Taufkirchen, Germany) and then diluted in the appropriate medium for the cells to 10 μg/ml of conjugate and 1% ethanol. The cells were incubated at 37° C. in an atmosphere of 5% CO2 for 20 minutes with the compounds. After this, the cells were rinsed three times with medium and then incubated with medium again. This experiment was also performed with free sulforhodamine B with a corresponding amount.
# The compound 10 was dissolved in culture medium (260 μM). Lys(FITC)-aminobourgeonal (compound 7) was dissolved in culture medium with 1% ethanol (260 μM). The cells were incubated for 20 minutes (compound 10) and for 2 days (compounds 7 and 10). This assay was also performed with free FITC. After the incubation the cells were rinsed three times with medium and again incubated in medium. Propidium iodide (PI) (molecular probes, Eugene, Oreg., USA) was added to stain death cells.
# (§4) The confocal laser scanning microscopy was performed on an inverted LSM510 laser scanning microscope (Carl Zeiss) (objective: LD Achroplan 40×0.6, Plan Neofluar 20×0.50, 40×0.75). For the rhodamine fluorescence excitation the 543 nm beam of a helium-neon laser with suitable beam splitters and barrier filters were used. […]
# [2] = tested on: osteosarcoma cells (U2OS); experiment: as above; assay type: cell-based, human; conditions: 20 minutes incubation, 260 μM
# Procedure: as §1, §2
# The compound 10 was dissolved in culture medium (260 μM). Lys(FITC)-aminobourgeonal (compound 7) was dissolved in culture medium with 1% ethanol (260 μM). The cells were incubated for 20 minutes (compound 10) and for 2 days (compounds 7 and 10). This assay was also performed with free FITC. […]
# as §4
# [3] = tested on: human PC3 prostate carcinoma in the right thigh of a nude mouse; experiment: Magnetic resonance tomography of nude mouse with implanted tumor; assay type: in vivo; conditions: 90 minutes after intravenous administration
# Procedure: PC3 and LNCaP prostate tumor cells were grown to 80% confluency, detached with Accutase™ (PAA Laboratories, Pasching, Austria) and then harvested. The cells were washed with PBS three times and then drawn up into a 30 g Micro-Fine™ insulin syringe (Becton Dickinson, Franklin Lakes, N.J., USA). Approximately 5×10^5 cells per mouse were injected into the right thigh of a male CD1 Nu/Nu mouse (Charles River, WIGA, Sulzfeld, Germany). The tumor growth was monitored and after 10 to 14 days mice bearing tumors with 2-3 mm in diameter were treated with the conjugate. 1.5 mg of the compound 1 were dissolved in 300 μl PBS containing 20% ethanol and applied intraperitoneally. […] Frozen sections (5 μm thickness) were prepared (LD3000 Cryotom, Leica Biosystems GmbH, Nussloch, Germany) and the rhodamine staining was analyzed by confocal laser scanning
# The magnetic resonance tomography (MRT) measurements were performed using a clinical 3-Tesla Siemens whole body MRT (Magnetom TRIO; Siemens, Erlangen, Germany) with the mice in prone position in a standard circular polarized wrist coil. The MRT protocol consisted of native and post-contrast T1 weighted axial images: slice thickness 2 mm, field of view read: 60 mm/7.5%, Voxel size: 0.2×0.2×2 mm, repetition time (TR): 800 ms, echo time (TE): 9.1 ms, flip angle: 90°, acquisitions: tions: 2, number of slices: 25, distance factor: 0, scan time 06:02 min. […]
# [4] = tested on: PC-3 prostate carcinoma cells; experiment: Fluorescence activated cell sorting (FACS) of cellular uptake; assay type: cell-based, human; conditions: 20 minutes incubation
# Procedure: (§5) For the fluorescence activated cell sorting (FACS), cells were grown in 75 cm^2 culture flasks (Corning Costar, Bodenheim, Germany) (80% confluency) under the same conditions as described for the confocal laser scanning microscopy. Accutase™ (PAA Laboratories, Pasching, Austria) was added to achieve detachment of the cells, which were harvested and subsequently alequoted into Eppendorf tubes (Eppendorf, Hamburg, Germany) (1×10^6 cells per tube). The cells were incubated for 20 minutes with the compounds 1, 2 and 4 (10 μg/ml in the appropriate medium with 1% ethanol) and the compound 10 (130 μM in the appropriate medium).
# (§6) Afterwards, the cells were washed three times in PBS and centrifuged at 800 rpm for 5 minutes. Then 300 μl FACS buffer (D-PBS containing 1% parafomaldehyde) were added. The samples were measured immediately. Approximately 20,000 events were recorded per sample. The fluorescence excitation was achieved by an argon laser (488 nm). The fluorescence was detected using a 580-610 and a 560-680 nm band-pass filter. All investigations were performed in triplicate.
# (§7) Mean rhodamine and fluorescein isothiocyanate fluorescence values of the samples were acquired using the WinMDI software (Joseph Trotter, Scripps Research Institute, San Diego, Calif., USA) and then statistically evaluated.
# [5] = tested on: healthy prostate cells (CC2555); experiment: as above; assay type: cell-based, human; conditions: 20 minutes incubation, 130 μM
# Procedure: as §5, §6, §7
# [6] = tested on: non-prostate tumor cell lines; experiment: as above; assay type: cell-based, human; conditions: 20 minutes incubation
# Procedure: as §5, §6, §7
# [7] = tested on: LNCaP prostate carcinoma cells; experiment: as above; assay type: cell-based, human; conditions: 20 minutes incubation, 130 μM
# Procedure: as §5, §6, §7
# [8] = tested on: PC-3 prostate carcinoma cells; experiment: In-vitro MRT / MR relaxometry of cells in Eppendorf tubes; assay type: cell-based, human; conditions: rank among cell lines
# Procedure: (§8) For the MR relaxometry, all tumor cell lines were grown in 75 cm^2 culture flasks (Corning Costar, Bodenheim, Germany) (70% confluency). Accutase™ (PAA Laboratories, Pasching, Austria) was added to achieve detachment of the cells, which were harvested and subsequently aliquoted into Eppendorf tubes (6×10^6 cells per tube). The cells in the tubes were incubated with the DOTA-containing compounds (130 μM). After a 20 minutes incubation period at 37° C. in an atmosphere of 5% CO2, the cells were washed three times in PBS and centrifuged at 800 rpm for 5 minutes.
# (§9) The in-vitro MRT was performed with a 3 Tesla-whole body MRT system (Magnetom TRIO, circular polarized wrist coil, Siemens, Erlangen, Germany)
# (§10) Sagittal T1-weighted MR images were obtained using the following spin-echo sequence:
# (§11) Repetition time (TR): 200 ms, echo time (TE): 7,4 ms, flip angle: 90°, averages: 1, concatenations: 2, measurements: 1, number of slices: 19, distance factor: 30%, slice thickness: 3 mm, field of view read: 180 mm/100%, resolution: 256/100%, voxel size: 0.7×0.7×3.0 mm, scan time: 1:48 min.
# (§12) The T1 relaxation times were evaluated from signal intensities obtained by multiple spin-echo measurements:
# (§13) Repetition time (TR): 20-8000 ms (50 different TR values), echo time (TE): 6.4 ms, flip angle: 90°, averages: 1, measurements: 1, number of slices: 1, slice thickness: 1 mm, field of view read: 120 mm/87.5%, resolution: 128/100%, voxel size: 0.9×0.9×1 mm.
# (§14) The analysis and calculations were performed using a Matlab program (Math Works, Natick, Mass., USA). The T1 values were approximated by a three-parameter fit procedure. All signal curves were examined and found to be monoexponential. The investigations were performed in triplicate.
# [9] = tested on: healthy prostate cells (CC2555); experiment: as above; assay type: cell-based, human; conditions: rank among cell lines
# Procedure: as §8, §9, §10, §11, §12, §13, §14
# [10] = tested on: LNCaP prostate carcinoma cells; experiment: as above; assay type: cell-based, human; conditions: for uptake / signal intensity of the cells in T1-weighted MRT images: 20 minutes incubation, washed, 130 μM
# Procedure: as §8, §9, §10, §11, §12, §13, §14
# [11] = tested on: other tumor cell lines (non-prostate); experiment: as above; assay type: cell-based, human; conditions: other carcinoma cells; incubation, washed three times with PBS
# Procedure: as §8, §9, §10, §11, §12, §13, §14
# [12] = tested on: seven human tumor cell lines and healthy human epithelial prostate cells (CC2555); experiment: Confocal laser scanning microscopy (CLSM) of cellular uptake, all cell types; assay type: cell-based; conditions: corresponding amount of free dye, 20 minutes
# Procedure: as §1, §2
# The compounds 1, 2 and 4 were dissolved at 1 mg/ml in pure ethanol (Riedel de Haen, Sigma-Aldrich, Taufkirchen, Germany) and then diluted in the appropriate medium for the cells to 10 μg/ml of conjugate and 1% ethanol. The cells were incubated at 37° C. in an atmosphere of 5% CO2 for 20 minutes with the compounds. […]
# as §4
# [13] = tested on: colon carcinoma cells (Colo205); experiment: Confocal laser scanning microscopy (CLSM) of cellular uptake; assay type: cell-based, human; conditions: 20 minutes incubation, 10 μg/ml
# Procedure: as §1, §2, §3
# (§15) The confocal laser scanning microscopy was performed on an inverted LSM510 laser scanning microscope (Carl Zeiss) (objective: LD Achroplan 40×0.6, Plan Neofluar 20×0.50, 40×0.75). For the rhodamine fluorescence excitation the 543 nm beam of a helium-neon laser with suitable beam splitters and barrier filters were used. All measures were performed at least three times on living, non-fixed cells.
# [14] = tested on: LNCaP prostate carcinoma cells; experiment: as above; assay type: cell-based, human; conditions: 20 minutes incubation, 10 μg/ml
# Procedure: as §1, §2, §3, §15
compound,measurement,setting,value
"O=CCCCCCCCCCCNC(=O)C(CCCCN=S=C=Nc1ccc2c(c1)C(=O)OC21c2ccc(O)cc2Oc2cc(O)ccc21)NC(=O)C[N+]12CC[N+]3(CC(=O)O)CCN(CC(=O)O)CC[N+](CC(=O)O)(CC1)[Gd]32 (centres unmarked) [compound 10, Gd-DOTA-Lys(FITC) aminoundecylic aldehyde]","uptake into the cells (FITC staining, CLSM)",[1],very well uptaken into the cytoplasm
same,"uptake into the cells (FITC staining, CLSM)",[2],not into the osteosarcoma cells
same,MRT staining of non-prostate carcinoma cells,[3],remain unstained
same,MRT signal of the prostate carcinoma cells,[3]; 10 days after implantation,increased signal intensity
same,"staining (FITC fluorescence, FACS)","[4]; PC-3, 130 μM",stained
same,"staining (FITC fluorescence, FACS)",[5],stained
same,"staining (FITC fluorescence, FACS)","[6]; non-prostate tumor cell lines, 130 μM",not the non-prostate tumor cell lines
same,"staining (FITC fluorescence, FACS)",[7],stained
same,difference of the T1-time (before minus after the incubation),[8],strongest reduction of the T1-time
same,difference of the T1-time (before minus after the incubation),[9],strongest reduction of the T1-time
same,uptake / signal intensity of the cells in T1-weighted MRT images,[10]; LNCaP,uptaken into the cytoplasm of the prostate carcinoma cells; also recorded: increase of the signal intensity
same,difference of the T1-time (before minus after the incubation),"[10]; LNCaP, rank among cell lines",strongest reduction of the T1-time
same,T1-time reduction in comparison to simple Gd-DOTA,[10]; prostate carcinoma cells (LNCaP),significantly stronger T1-time reduction
same,signal intensity of the cells in T1-weighted MRT images,[11],only with the LNCaP-prostate carcinoma cells
"CCN(CC)c1ccc2c(-c3ccc(S(=O)(=O)NCCC(=O)NCCCCCCCC=O)cc3S(=O)(=O)O)c3ccc(=[N+](CC)CC)cc-3oc2c1 [compound 4, sulforhodamine-sulfonamido βala-aminooctanal]","fluorescence (rhodamine, FACS)","[4]; PC3, 10 μg/ml",highest fluorescence
same,"fluorescence (rhodamine, FACS)","[6]; remaining carcinoma cell lines, 10 μg/ml",only show little staining
sulforhodamine B,"uptake by any cell type (rhodamine staining, CLSM)",[12],not taken up by any cell types
"fluorescein isothiocyanate [FITC, reference compound]","uptake into the cells (FITC staining, CLSM)",[1],not uptaken by the cells
same,"uptake into the cells (FITC staining, CLSM)",[2],not uptaken by the cells
"CCN(CC)c1ccc2c(-c3ccc(S(=O)(=O)NCCC(=O)Nc4ccc(/C=C\C=O)cc4)cc3S(=O)(=O)[O-])c3ccc(=[N+](CC)CC)cc-3oc2c1 [compound 2, Sulforhodamine-Sulfonamido βAla-Aminocinnamaldehyde]","uptake into the cells (rhodamine staining, CLSM)",[13],basically unstained
same,"uptake into the cells (rhodamine staining, CLSM)",[14],significantly stained
"O=C([O-])CN1CCN(CC(=O)[O-])CCN(CC(=O)O)CCN(CC(=O)[O-])CC1.[Gd+3] [Gd-DOTA, reference compound]",uptake / signal intensity of the cells in T1-weighted MRT images,[10]; LNCaP,not taken up by the prostate carcinoma cells; also recorded: remain dark
same,signal intensity of the cells in T1-weighted MRT images,[11],remain dark
